From patent US9321718B2 (CHROMA THERAPEUTICS LTD., priority 2010, dated 2016)

Each compound was assayed against T1, human recombinant his-tagged HSP90α (Homo sapiens, UniProt P07900) (assay: HSP90 enzyme assay (HTRF, competition with biotinylated Geldanamycin)). Conditions: IC50 range; read-out: Enzyme Assay.
T1 construct: purchased Prospec Technogene #HSP90
Type: binding
Source text: An HTRF (homogeneous time resolved fluorescence) assay is used to measure the interaction of the compounds with HSP90. The assay measures binding of biotinylated Geldanamycin (bio-GM; Biomol, #EI-341, lot: A9199a) to human recombinant his-tagged HSP90α (HSP90; Prospec Technogene, #HSP90, lot: 260HSP9001). A signal is generated by fluorescence resonance energy transfer from an Europium-cryptate labeled anti-his antibody (anti-his-K; Cisbio International, #61HISKLA, lot: 33V) via the HSP90-GM-biotin complex to a fluorescence acceptor (allophycocyanin) linked to streptavidin (SA-XL; Cisbio International, #610SAXLB, lot: 089).
Unlabeled GM or compounds compete with the bio-GM for binding to HSP90 resulting in reduced fluorescence energy transfer/assay signal.
A preformed (1 hour incubation) complex of HSP90 with the anti-his-K is added to the compound solution in a 384 well microplate (Corning, #3710) and incubated for 15 minutes. A preformed (1 hour incubation) complex of bio-GM with the SA-XL is added to the wells and incubated for 20 hours. All incubations are performed at room temperature. The final assay volume is 50 μl/well. The final concentrations in the assay are: 50 mM Hepes pH 7.3, 50 mM NaCl, 100 mM KF, 1 mM EDTA, 1 mM DTT, 0.1% Triton-X-100, […] HSP90, 40 nM SA-XL, 40 nM bio-GM. Test compounds are dissolved in DMSO, prediluted in assay buffer and tested at a final concentration between 5000 nM and 0.3 nM. The resulting DMSO concentration is 0.5% and included in all controls. High controls are without test compounds, low controls without test compounds, without HSP90 and without bio-GM. As a reference inhibitor unlabeled GM is used in the same concentrations as the test compounds.
Inhibition is calculated compared to the assay controls using an Excel spreadsheet (Microsoft). IC50 values are calculated by non-linear least squares fitting to the standard dose-response model using GraphPad Prism (GraphPad Software Inc).

| IC50 | Compound |
| --- | --- |
| < 100 nM | CC(C)C[C@@H](NCC1CCN(C(=O)c2cc(C(C)C)c(O)cc2O)CC1)C(=O)O [Example 108, N-[(1-{[2,4-dihydroxy-5-(propan-2-yl)phenyl]carbonyl}piperidin-4-yl)methyl]-D-leucine] |
| < 100 nM | N-[2-(1-{[2,4-dihydroxy-5-(propan-2-yl)phenyl]carbonyl}piperidin-4-yl)ethyl]-2-methylalanine [Example 114] |
| < 100 nM | CC(C)C[C@H](NCCc1ccc2c(c1)CN(C(=O)c1cc(C(C)C)c(O)cc1O)C2)C(=O)O [Example 81, N-[2-(2-{[2,4-dihydroxy-5-(propan-2-yl)phenyl]carbonyl}-2,3-dihydro-1H-isoindol-5-yl)ethyl]-L-leucine] |
| < 100 nM | CC(C)c1cc(C(=O)N(C)Cc2ccc(CCNC(C)(C)C(=O)O)cc2)c(O)cc1O [Example 91, N-[2-(4-{[{[2,4-dihydroxy-5-(propan-2-yl)phenyl]carbonyl}(methyl)amino]methyl}phenyl)ethyl]-2-methylalanine] |
| < 100 nM | CC(C)c1cc(C(=O)N2CCC(N[C@H](C(=O)O)c3ccccc3)CC2)c(O)cc1O [Example 99, (2S)-[(1-{[2,4-dihydroxy-5-(propan-2-yl)phenyl]carbonyl}piperidin-4-yl)amino](phenyl)ethanoic acid] |
| < 100 nM | CC(C)c1cc(C(=O)N2CCC(CN[C@H](C(=O)O)c3ccccc3)CC2)c(O)cc1O [Example 120, (2S)-{[(1-{[2,4-dihydroxy-5-(propan-2-yl)phenyl]carbonyl}piperidin-4-yl)methyl]amino}(phenyl)ethanoic acid] |
| < 100 nM | CC(C)c1cc(C(=O)N2CCC(CCN[C@H](C(=O)OC(C)(C)C)c3ccccc3)CC2)c(O)cc1O [Example 50, tert-butyl (2S)-{[2-(1-{[2,4-dihydroxy-5-(propan-2-yl)phenyl]carbonyl}piperidin-4-yl)ethyl]amino}(phenyl)ethanoate] |
| < 100 nM | CC(C)c1cc(C(=O)N2CCC(NC(C)(C)C(=O)O)CC2)c(O)cc1O [Example 97, N-(1-{[2,4-dihydroxy-5-(propan-2-yl)phenyl]carbonyl}piperidin-4-yl)-2-methylalanine] |
| < 100 nM | CC(C)c1cc(C(=O)N2Cc3ccc(CNC4(C(=O)O)CCCC4)cc3C2)c(O)cc1O [Example 83, 1-{[(2-{[2,4-dihydroxy-5-(propan-2-yl)phenyl]carbonyl}-2,3-dihydro-1H-isoindol-5-yl)methyl]amino}cyclopentanecarboxylic acid] |
| < 100 nM | CC(C)c1cc(C(=O)N2CCC(CCN[C@H](C(=O)O)C3CCCCC3)CC2)c(O)cc1O [Example 123, (2S)-cyclohexyl{[2-(1-{[2,4-dihydroxy-5-(propan-2-yl)phenyl]carbonyl}piperidin-4-yl)ethyl]amino}ethanoic acid] |
| < 100 nM | CC(C)c1cc(C(=O)N2CCC(CN[C@@H](C)C(=O)O)CC2)c(O)cc1O [Example 106, N-[(1-{[2,4-dihydroxy-5-(propan-2-yl)phenyl]carbonyl}piperidin-4-yl)methyl]-L-alanine] |
| < 100 nM | CC(C)c1cc(C(=O)N2CCC(CCN[C@@H](COC(C)(C)C)C(=O)O)CC2)c(O)cc1O [Example 115, O-tert-butyl-N-[2-(1-{[2,4-dihydroxy-5-(propan-2-yl)phenyl]carbonyl}piperidin-4-yl)ethyl]-L-serine] |
| 100 to 1000 nM | CC(C)C[C@H](NC[C@@H]1CCCN1C(=O)c1cc(C(C)C)c(O)cc1O)C(=O)O [Example 94, N-{[(2S)-1-{[2,4-dihydroxy-5-(propan-2-yl)phenyl]carbonyl}pyrrolidin-2-yl]methyl}-L-leucine] |
| < 100 nM | CC(C)c1cc(C(=O)N2CCC(N[C@H](C(=O)O)C(C)C)CC2)c(O)cc1O [Example 98, N-(1-{[2,4-dihydroxy-5-(propan-2-yl)phenyl]carbonyl}piperidin-4-yl)-L-valine] |
| < 100 nM | CC(C)c1cc(C(=O)N2CCC(CN[C@H](C(=O)O)C3CCCCC3)CC2)c(O)cc1O [Example 116, (2S)-cyclohexyl{[(1-{[2,4-dihydroxy-5-(propan-2-yl)phenyl]carbonyl}piperidin-4-yl)methyl]amino}ethanoic acid] |
| < 100 nM | CC(C)C[C@H](NCc1ccc(CN(C)C(=O)c2cc(C(C)C)c(O)cc2O)cc1)C(=O)O [Example 77, N-(4-{[{[2,4-dihydroxy-5-(propan-2-yl)phenyl]carbonyl}(methyl)amino]methyl}benzyl)-L-leucine] |
| < 100 nM | CCOC(=O)[C@H](C)NCc1ccc2c(c1)CN(C(=O)c1cc(C(C)C)c(O)cc1O)C2 [Example 57, ethyl N-[(2-{[2,4-dihydroxy-5-(propan-2-yl)phenyl]carbonyl}-2,3-dihydro-1H-isoindol-5-yl)methyl]-L-alaninate] |
| < 100 nM | CC(C)c1cc(C(=O)N2CCC(N[C@@H](CC3CCCCC3)C(=O)O)CC2)c(O)cc1O [Example 110, 3-cyclohexyl-N-(1-{[2,4-dihydroxy-5-(propan-2-yl)phenyl]carbonyl}piperidin-4-yl)-L-alanine] |

The next lines start with the compound.

| Compound | IC50 |
| --- | --- |
| CC(C)C[C@H](NCCC1CCN(C(=O)c2cc(C(C)C)c(O)cc2O)CC1)C(=O)O [Example 104, N-[2-(1-{[2,4-dihydroxy-5-(propan-2-yl)phenyl]carbonyl}piperidin-4-yl)ethyl]-L-leucine] | < 100 nM |
| CC(C)c1cc(C(=O)N(C)Cc2cccc(CNC3(C(=O)O)CCCC3)c2)c(O)cc1O [Example 88, 1-[(3-{[{[2,4-dihydroxy-5-(propan-2-yl)phenyl]carbonyl}(methyl)amino]methyl}benzyl)amino]cyclopentanecarboxylic acid] | < 100 nM |
| CC(C)c1cc(C(=O)N2CCC(CCN[C@H](C(=O)OC(C)(C)C)C3CCCCC3)CC2)c(O)cc1O [Example 49, tert-butyl (2S)-cyclohexyl{[2-(1-{[2,4-dihydroxy-5-(propan-2-yl)phenyl]carbonyl}piperidin-4-yl)ethyl]amino}ethanoate] | < 100 nM |
| CC(C)C[C@@H](NC1CCN(C(=O)c2cc(C(C)C)c(O)cc2O)CC1)C(=O)O [Example 109, N-(1-{[2,4-dihydroxy-5-(propan-2-yl)phenyl]carbonyl}piperidin-4-yl)-D-leucine] | > 1000 nM |
| CC(C)c1cc(C(=O)N2CCC(CN[C@@H](CO)C(=O)O)CC2)c(O)cc1O [Example 118, N-[(1-{[2,4-dihydroxy-5-(propan-2-yl)phenyl]carbonyl}piperidin-4-yl)methyl]-L-serine] | < 100 nM |
| CC(C)c1cc(C(=O)N2CCC(CN[C@H](C(=O)O)C(C)C)CC2)c(O)cc1O [Example 112, N-[(1-{[2,4-dihydroxy-5-(propan-2-yl)phenyl]carbonyl}piperidin-4-yl)methyl]-L-valine] | < 100 nM |
| CC(C)c1cc(C(=O)N(C)Cc2cccc(CN[C@H](C(=O)O)c3ccccc3)c2)c(O)cc1O [Example 89, (2S)-[(3-{[{[2,4-dihydroxy-5-(propan-2-yl)phenyl]carbonyl}(methyl)amino]methyl}benzyl)amino](phenyl)ethanoic acid] | < 100 nM |
| CC(C)C[C@H](NCc1cccc(CN(C)C(=O)c2cc(C(C)C)c(O)cc2O)c1)C(=O)O [Example 84, N-(3-{[{[2,4-dihydroxy-5-(propan-2-yl)phenyl]carbonyl}(methyl)amino]methyl}benzyl)-L-leucine] | < 100 nM |
| CC(C)C[C@H](NCc1ccc2c(c1)CN(C(=O)c1cc(C(C)C)c(O)cc1O)C2)C(=O)O [Example 78, N-[(2-{[2,4-dihydroxy-5-(propan-2-yl)phenyl]carbonyl}-2,3-dihydro-1H-isoindol-5-yl)methyl]-L-leucine] | < 100 nM |
| CC(C)c1cc(C(=O)N2CCC(N[C@@H](CO)C(=O)O)CC2)c(O)cc1O [Example 125, N-(1-{[2,4-dihydroxy-5-(propan-2-yl)phenyl]carbonyl}piperidin-4-yl)-L-serine] | < 100 nM |
| CC(C)c1cc(C(=O)N2CCC(CCN[C@@H](C)C(=O)OC(C)(C)C)CC2)c(O)cc1O [Example 43, tert-butyl N-[2-(1-{[2,4-dihydroxy-5-(propan-2-yl)phenyl]carbonyl}piperidin-4-yl)ethyl]-L-alaninate] | < 100 nM |
| CC(C)OC(=O)[C@H](C)NCc1ccc2c(c1)CN(C(=O)c1cc(C(C)C)c(O)cc1O)C2 [Example 58, propan-2-yl N-[(2-{[2,4-dihydroxy-5-(propan-2-yl)phenyl]carbonyl}-2,3-dihydro-1H-isoindol-5-yl)methyl]-L-alaninate] | < 100 nM |
| CC(C)c1cc(C(=O)N2Cc3ccc(CNC(C)(C)C(=O)O)cc3C2)c(O)cc1O [Example 79, N-[(2-{[2,4-dihydroxy-5-(propan-2-yl)phenyl]carbonyl}-2,3-dihydro-1H-isoindol-5-yl)methyl]-2-methylalanine] | < 100 nM |
